Test results from PubChem BioAssay (NCI).
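Method: 48-hour compound exposure of cells in 96-well plates, five concentrations, linear interpolation of endpoints. GI50 = concentration required for 50% inhibition of growth. TGI denotes the concentration required for complete inhibition of growth.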

Key:
Assay in all cases: NCI-60 cell line screen, 48 h
786-0 renal = system: 786-0 renal
A498 renal = system: A498 renal
A549 NSCLC = system: A549 NSCLC
ACHN renal = system: ACHN renal
BT-549 breast = system: BT-549 breast
CAKI-1 renal = system: CAKI-1 renal
CCRF-CEM leukemia = system: CCRF-CEM leukemia
COLO 205 colon = system: COLO 205 colon
DU-145 prostate = system: DU-145 prostate
EKVX NSCLC = system: EKVX NSCLC
HCC-2998 colon = system: HCC-2998 colon
HCT-116 colon = system: HCT-116 colon
HCT-15 colon = system: HCT-15 colon
HL-60(TB) leukemia = system: HL-60(TB) leukemia
HOP-62 NSCLC = system: HOP-62 NSCLC
HOP-92 NSCLC = system: HOP-92 NSCLC
HT29 colon = system: HT29 colon
IGROV1 ovarian = system: IGROV1 ovarian
K-562 leukemia = system: K-562 leukemia
KM12 colon = system: KM12 colon
LOX IMVI melanoma = system: LOX IMVI melanoma
M14 melanoma = system: M14 melanoma
MALME-3M melanoma = system: MALME-3M melanoma
MDA-MB-231 breast = system: MDA-MB-231 breast
MDA-MB-435 = system: MDA-MB-435
MDA-MB-468 breast = system: MDA-MB-468 breast
NCI-H226 lung = system: NCI-H226 lung
NCI-H23 lung = system: NCI-H23 lung
NCI-H460 lung = system: NCI-H460 lung
NCI-H522 lung = system: NCI-H522 lung
NCI/ADR-RES ovarian = system: NCI/ADR-RES ovarian
OVCAR-3 ovarian = system: OVCAR-3 ovarian
OVCAR-4 ovarian = system: OVCAR-4 ovarian
OVCAR-5 ovarian = system: OVCAR-5 ovarian
OVCAR-8 ovarian = system: OVCAR-8 ovarian
PC-3 prostate = system: PC-3 prostate
RPMI-8226 leukemia = system: RPMI-8226 leukemia
RXF 393 renal = system: RXF 393 renal
SF-268 CNS = system: SF-268 CNS
SF-295 CNS = system: SF-295 CNS
SF-539 CNS = system: SF-539 CNS
SK-MEL-2 melanoma = system: SK-MEL-2 melanoma
SK-MEL-28 melanoma = system: SK-MEL-28 melanoma
SK-MEL-5 melanoma = system: SK-MEL-5 melanoma
SK-OV-3 ovarian = system: SK-OV-3 ovarian
SN12C renal = system: SN12C renal
SNB-19 CNS = system: SNB-19 CNS
SNB-75 CNS = system: SNB-75 CNS
SR leukemia = system: SR leukemia
SW-620 colon = system: SW-620 colon
T-47D breast = system: T-47D breast
TK-10 renal = system: TK-10 renal
U251 CNS = system: U251 CNS
UACC-257 melanoma = system: UACC-257 melanoma
UACC-62 melanoma = system: UACC-62 melanoma
UO-31 renal = system: UO-31 renal
HS 578T breast = system: HS 578T breast
MCF7 breast = system: MCF7 breast
MOLT-4 leukemia = system: MOLT-4 leukemia

## NS(=O)(=O)c1ccc(N=Nc2c(O)n(CC(=O)Nc3ccccc3)c3ccccc23)cc1
786-0 renal
  GI50: 1.29 µM
  TGI: 6.54 µM
A498 renal
  GI50: 1.29 µM
  TGI: 5.39 µM
A549 NSCLC
  GI50: 0.738 µM
  TGI: 4.18 µM
ACHN renal
  GI50: 0.606 µM
  TGI: 4.53 µM
BT-549 breast
  GI50: 2.03 µM
  TGI: 7.73 µM
CAKI-1 renal
  GI50: 0.434 µM
  TGI: 2.36 µM
CCRF-CEM leukemia
  GI50: 0.776 µM
  TGI: > 100 µM
COLO 205 colon
  GI50: 1.24 µM
  TGI: 6.74 µM
DU-145 prostate
  GI50: 0.794 µM
  TGI: 48.3 µM
EKVX NSCLC
  GI50: 3.35 µM
  TGI: 39.3 µM
HCC-2998 colon
  GI50: 2.2 µM
  TGI: 8.56 µM
HCT-116 colon
  GI50: 0.46 µM
  TGI: 2.58 µM
HCT-15 colon
  GI50: 0.533 µM
  TGI: > 100 µM
HL-60(TB) leukemia
  GI50: 0.443 µM
  TGI: > 100 µM
HOP-62 NSCLC
  GI50: 1.8 µM
  TGI: 5.5 µM
HOP-92 NSCLC
  GI50: 1.6 µM
  TGI: 6.56 µM
HT29 colon
  GI50: 0.749 µM
  TGI: 2.82 µM
IGROV1 ovarian
  GI50: 2.79 µM
  TGI: 14.5 µM
K-562 leukemia
  GI50: 0.895 µM
  TGI: > 100 µM
KM12 colon
  GI50: 1.03 µM
  TGI: 22.5 µM
LOX IMVI melanoma
  GI50: 0.725 µM
  TGI: 11.3 µM
M14 melanoma
  GI50: 1.14 µM
  TGI: > 100 µM
MALME-3M melanoma
  GI50: 1.09 µM
  TGI: 5.15 µM
MDA-MB-231 breast
  GI50: 1.4 µM
  TGI: 3.92 µM
MDA-MB-435
  GI50: 0.635 µM
  TGI: 6.1 µM
MDA-MB-468 breast
  GI50: 0.768 µM
  TGI: 4.65 µM
NCI-H226 lung
  GI50: 1.4 µM
  TGI: 4.75 µM
NCI-H23 lung
  GI50: 0.801 µM
  TGI: 3.46 µM
NCI-H460 lung
  GI50: 0.544 µM
  TGI: 3.07 µM
NCI-H522 lung
  GI50: 0.589 µM
  TGI: 3.8 µM
NCI/ADR-RES ovarian
  GI50: > 100 µM
  TGI: > 100 µM
OVCAR-3 ovarian
  GI50: 0.873 µM
  TGI: 16 µM
OVCAR-4 ovarian
  GI50: 0.93 µM
  TGI: 69.7 µM
OVCAR-5 ovarian
  GI50: 3.52 µM
  TGI: 26.1 µM
OVCAR-8 ovarian
  GI50: 0.646 µM
  TGI: 3.16 µM
PC-3 prostate
  GI50: 1.61 µM
  TGI: 10.9 µM
RPMI-8226 leukemia
  GI50: 1.13 µM
  TGI: > 100 µM
RXF 393 renal
  GI50: 1.36 µM
  TGI: 5.06 µM
SF-268 CNS
  GI50: 3.59 µM
  TGI: > 100 µM
SF-295 CNS
  GI50: 1.23 µM
  TGI: 5.16 µM
SF-539 CNS
  GI50: 0.538 µM
  TGI: 2.03 µM
SK-MEL-2 melanoma
  GI50: 2.25 µM
  TGI: 6.9 µM
SK-MEL-28 melanoma
  GI50: 0.932 µM
  TGI: 6.06 µM
SK-MEL-5 melanoma
  GI50: 1 µM
  TGI: 5.5 µM
SK-OV-3 ovarian
  GI50: 3.11 µM
  TGI: 10.2 µM
SN12C renal
  GI50: 1.14 µM
  TGI: 6.05 µM
SNB-19 CNS
  GI50: 1.67 µM
  TGI: 15.1 µM
SNB-75 CNS
  GI50: 1.94 µM
  TGI: 8.22 µM
SR leukemia
  GI50: 0.194 µM
  TGI: > 100 µM
SW-620 colon
  GI50: 0.402 µM
  TGI: 2.26 µM
T-47D breast
  GI50: 1.89 µM
  TGI: 21.4 µM
TK-10 renal
  GI50: 2.64 µM
  TGI: 25.8 µM
U251 CNS
  GI50: 1.17 µM
  TGI: 3.88 µM
UACC-257 melanoma
  GI50: 2.02 µM
  TGI: 20.3 µM
UACC-62 melanoma
  GI50: 0.52 µM
  TGI: 2.81 µM
UO-31 renal
  GI50: 0.895 µM
  TGI: 6.95 µM

## O=C(c1ccc(Cl)cc1)C1[C@H](c2ccc(Br)cc2)[C@@H](c2ccccc2)NC12C(=O)Nc1ccc(Cl)cc12 (stereo partly drawn)
786-0 renal
  GI50: 0.905 µM
  TGI: 1.89 µM
A498 renal
  GI50: 7.48 µM
  TGI: 15 µM
A549 NSCLC
  GI50: 2.31 µM
  TGI: 9.53 µM
ACHN renal
  GI50: 2.17 µM
  TGI: 8.6 µM
BT-549 breast
  GI50: 2.71 µM
  TGI: 9.33 µM
CAKI-1 renal
  GI50: 1.42 µM
  TGI: 8.42 µM
CCRF-CEM leukemia
  GI50: 2.79 µM
  TGI: 13 µM
COLO 205 colon
  GI50: 5.85 µM
  TGI: 14.2 µM
DU-145 prostate
  GI50: 5.9 µM
  TGI: 13.6 µM
EKVX NSCLC
  GI50: 4.03 µM
  TGI: 11.7 µM
HCC-2998 colon
  GI50: 1.63 µM
  TGI: 7.02 µM
HCT-116 colon
  GI50: 0.986 µM
  TGI: 3.01 µM
HCT-15 colon
  GI50: 2.15 µM
  TGI: 8.97 µM
HL-60(TB) leukemia
  GI50: 4.65 µM
  TGI: 16.7 µM
HOP-62 NSCLC
  GI50: 6.07 µM
  TGI: 13.1 µM
HOP-92 NSCLC
  GI50: 2.3 µM
  TGI: 9.31 µM
HS 578T breast
  GI50: 6.82 µM
  TGI: 23 µM
HT29 colon
  GI50: 1.14 µM
  TGI: 3.22 µM
IGROV1 ovarian
  GI50: 2.76 µM
  TGI: 9.96 µM
K-562 leukemia
  GI50: 1.64 µM
  TGI: 11.7 µM
KM12 colon
  GI50: 2.17 µM
  TGI: 9.98 µM
LOX IMVI melanoma
  GI50: 1.83 µM
  TGI: 10.1 µM
M14 melanoma
  GI50: 2.06 µM
  TGI: 8.82 µM
MALME-3M melanoma
  GI50: 7.09 µM
  TGI: 13.9 µM
MCF7 breast
  GI50: 1.69 µM
  TGI: 6.82 µM
MDA-MB-231 breast
  GI50: 4.63 µM
  TGI: 11.3 µM
MDA-MB-435
  GI50: 2.81 µM
  TGI: 9.75 µM
MDA-MB-468 breast
  GI50: 3.54 µM
  TGI: 11.4 µM
MOLT-4 leukemia
  GI50: 1.64 µM
  TGI: 8.26 µM
NCI-H226 lung
  GI50: 5.3 µM
  TGI: 12.2 µM
NCI-H23 lung
  GI50: 3.98 µM
  TGI: 11.7 µM
NCI-H460 lung
  GI50: 1.66 µM
  TGI: 7.49 µM
NCI-H522 lung
  GI50: 4.22 µM
  TGI: 11.8 µM
OVCAR-3 ovarian
  GI50: 4.02 µM
  TGI: 11 µM
OVCAR-4 ovarian
  GI50: 3.65 µM
  TGI: 11.9 µM
OVCAR-5 ovarian
  GI50: 5.95 µM
  TGI: 12.6 µM
OVCAR-8 ovarian
  GI50: 5.46 µM
  TGI: 12.8 µM
PC-3 prostate
  GI50: 2.03 µM
  TGI: 9.08 µM
RPMI-8226 leukemia
  GI50: 1.99 µM
  TGI: 13.2 µM
RXF 393 renal
  GI50: 2.09 µM
  TGI: 9.12 µM
SF-268 CNS
  GI50: 2.88 µM
  TGI: 11.2 µM
SF-295 CNS
  GI50: 2.75 µM
  TGI: 10.1 µM
SF-539 CNS
  GI50: 6.41 µM
  TGI: 13.1 µM
SK-MEL-2 melanoma
  GI50: 5.51 µM
  TGI: 12.1 µM
SK-MEL-28 melanoma
  GI50: 5.78 µM
  TGI: 12.2 µM
SK-MEL-5 melanoma
  GI50: 7.68 µM
  TGI: 15 µM
SK-OV-3 ovarian
  GI50: 7.36 µM
  TGI: 17.3 µM
SN12C renal
  GI50: 1.88 µM
  TGI: 7.17 µM
SNB-19 CNS
  GI50: 5.97 µM
  TGI: 13.2 µM
SNB-75 CNS
  GI50: 2.45 µM
  TGI: 11.6 µM
SR leukemia
  GI50: 1.63 µM
  TGI: 9.55 µM
SW-620 colon
  GI50: 3.35 µM
  TGI: 10.7 µM
T-47D breast
  GI50: 2.13 µM
  TGI: 9.66 µM
TK-10 renal
  GI50: 5.49 µM
  TGI: 12.2 µM
U251 CNS
  GI50: 3.58 µM
  TGI: 10.7 µM
UACC-257 melanoma
  GI50: 6.03 µM
  TGI: 12.8 µM
UACC-62 melanoma
  GI50: 2.21 µM
  TGI: 9.1 µM
UO-31 renal
  GI50: 1.87 µM
  TGI: 8.68 µM
